From patent publication US20250235484A1, “METHODS FOR MAKING EXTRACELLULAR VESICLES, AND COMPOSITIONS AND METHODS OF USE THEREOF” (EVIA LIFE SCIENCES INC., priority 2021, published 2025)
“Also recorded” adds a separate entry of the source.

How the values were obtained:
[1] = system: Human primary keratinocytes; assay: Extracellular vesicle secretion by cultured keratinocytes, Nanosight analysis of culture supernatant; assay type: cell-based; details: compared with normal KC-EVs / keratinocytes without inhibitors
Protocol: (§1) Human primary keratinocytes were cultured in EpiLife™ medium with or without Y or Y+A supplementation according to the schedule below, and analyzed for extracellular vesicle secretion. 10 μM Y-27632 (Wako) and 0.5 μM A-83-01 (Wako) was used. Collection media was serum-free EpiLife™ medium without inhibitors. Thus, depending on the experiment, or stage of the experiment, human epidermal keratinocytes were cultured in serum free media such as EpiLife™ Medium, without or without small molecule inhibitor(s), namely, 10 μM Y-27632 (Wako) alone, or 10 μM Y-27632 plus 0.5 μM A-83-01 (Wako).

[2] = system: Human primary keratinocytes; assay: Long-term culture of keratinocytes: proliferation, morphology, cell condition; assay type: cell-based
Protocol: as §1, with “(Wako). [table] Long-term culture of keratinocytes was carried out by adding low molecular weight compounds Y and Y+A.” for “(Wako).”

CC(N)[C@H]1CC[C@H](C(=O)Nc2ccncc2)CC1 (mixture of isomers) [Y, (+/−)-trans-N-(4-Pyridyl)-4-(1-aminoethyl)-cyclohexanecarboxamide]
amount of EVs secreted [1]: increased; also recorded: larger number | cell proliferation ([2]; compared with culturing normal cells without Y, 10 μM Y-27632): increased; also recorded: enhanced | cell growth, morphology and cell condition ([2]; long-term culture, micrographs): good cell growth, and good morphology; also recorded: cell morphology was the best
